Measurements: PubChem BioAssay AID330 (DTP/NCI, 2004)
“And” between values parts separate entries of the source, which are not always exact repeats. Equal entries are not always repeated. Toxic doses and inconclusive results are not listed.

Test system: P388 leukemia ip, CD2F1 mice, survival T/C
Assay: NCI In Vivo Anticancer Drug Screen. Data for tumor model P388 Leukemia (intraperitoneal) in CD2F1 (CDF1) mice
Details: endpoint: median survival time, higher = longer survival
In short: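 Mice carrying the transplanted tumor received test compound or vehicle. Survival was recorded in each group, and the value is the treated-group measurement divided by that of the vehicle-treated control group.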

[1] = dose: 25.0 mg/kg/injection, schedule: Q01DX009 (ip), vehicle: other
[2] = dose: 50.0 mg/kg/injection, schedule: Q01DX009 (ip), vehicle: other
[3] = dose: 100.0 mg/kg/injection, schedule: Q01DX009 (ip), vehicle: other
[4] = dose: 60.0 mg/kg/injection, schedule: Q01DX005 (ip), vehicle: saline with Tween-80
[5] = dose: 120.0 mg/kg/injection, schedule: Q01DX005 (ip), vehicle: saline with Tween-80
[6] = dose: 240.0 mg/kg/injection, schedule: Q01DX005 (ip), vehicle: saline with Tween-80
[7] = dose: 100.0 mg/kg/injection, schedule: Q01DX001 (ip), vehicle: saline with Tween-80
[8] = dose: 200.0 mg/kg/injection, schedule: Q01DX001 (ip), vehicle: saline with Tween-80
[9] = dose: 400.0 mg/kg/injection, schedule: Q01DX001 (ip), vehicle: saline with Tween-80
[10] = dose: 50.0 mg/kg/injection, schedule: Q01DX005 (ip), vehicle: Klucel (hydroxypropylcellulose) (HPC)
[11] = dose: 100.0 mg/kg/injection, schedule: Q01DX005 (ip), vehicle: Klucel (hydroxypropylcellulose) (HPC)
[12] = dose: 200.0 mg/kg/injection, schedule: Q01DX005 (ip), vehicle: Klucel (hydroxypropylcellulose) (HPC)
[13] = dose: 6.25 mg/kg/injection, schedule: Q01DX005 (ip), vehicle: saline with Tween-80
[14] = dose: 12.5 mg/kg/injection, schedule: Q01DX005 (ip), vehicle: saline with Tween-80
[15] = dose: 25.0 mg/kg/injection, schedule: Q01DX005 (ip), vehicle: saline with Tween-80
[16] = dose: 50.0 mg/kg/injection, schedule: Q01DX005 (ip), vehicle: saline with Tween-80
[17] = dose: 60.0 mg/kg/injection, schedule: Q01DX005 (ip), vehicle: Klucel (hydroxypropylcellulose) (HPC)
[18] = dose: 120.0 mg/kg/injection, schedule: Q01DX005 (ip), vehicle: Klucel (hydroxypropylcellulose) (HPC)
[19] = dose: 240.0 mg/kg/injection, schedule: Q01DX005 (ip), vehicle: Klucel (hydroxypropylcellulose) (HPC)
[20] = dose: 100.0 mg/kg/injection, schedule: Q01DX009 (ip), vehicle: saline with Tween-80
[21] = dose: 100.0 mg/kg/injection, schedule: Q01DX005 (ip), vehicle: saline with Tween-80

O=C(Nc1cccc2ccccc12)OC1CC2CCC1C2Cl (stereo unspecified)
T/C [1]: 93 % of control
T/C [2]: 87 % of control
T/C [3]: 87 % of control
T/C (dose: 200.0 mg/kg/injection, schedule: Q01DX009 (ip), vehicle: other): 88 % of control
T/C (dose: 400.0 mg/kg/injection, schedule: Q01DX009 (ip), vehicle: other): 91 % of control

CCN(CC)CCCC(C)n1c2nc(=O)[nH]c(=O)c-2nc2ccc(Cl)cc21 (stereo unspecified)
T/C (dose: 6.25 mg/kg/injection, schedule: Q01DX005 (ip), vehicle: saline): 100 % of control
T/C (dose: 12.5 mg/kg/injection, schedule: Q01DX005 (ip), vehicle: saline): 107 % of control
T/C (dose: 25.0 mg/kg/injection, schedule: Q01DX005 (ip), vehicle: saline): 112 % of control

COC(=O)c1cc(C(=O)OC)c2c3[nH]cnc3ncn2c1=O
T/C (dose: 100.0 mg/kg/injection, schedule: Q04DX003 (ip), vehicle: saline with Tween-80): 98 % of control
T/C (dose: 200.0 mg/kg/injection, schedule: Q04DX003 (ip), vehicle: saline with Tween-80): 100 % of control
T/C (dose: 400.0 mg/kg/injection, schedule: Q04DX003 (ip), vehicle: saline with Tween-80): 97 % of control

O=C(O)c1ccc(/C=C2\COc3ccccc3C2=O)cc1
T/C [4]: 103 % of control
T/C [5]: 112 % of control
T/C [6]: 112 % of control

O=C(NC(Cc1ccccc1)C(=O)O)c1ccc([N+](=O)[O-])cc1 (stereo unspecified)
T/C [1]: 97 % of control
T/C [2]: 89 % of control
T/C [3]: 104 % of control

Cc1ccc(S(=O)(=O)CS(N)(=O)=O)cc1
T/C [7]: 99 % of control
T/C [8]: 118 % of control
T/C [9]: 97 % of control

CC(=O)Nc1cc(N2CCCCC2)c(N)c2c1C(=O)c1ccccc1C2=O
T/C [10]: 102 % of control
T/C [11]: 97 % of control
T/C [12]: 98 % of control

CC(=O)OCC#CCOC(C)=O
T/C (dose: 12.5 mg/kg/injection, schedule: Q01DX009 (ip), vehicle: saline sonified): 100 % of control
T/C (dose: 25.0 mg/kg/injection, schedule: Q01DX009 (ip), vehicle: saline sonified): 100 % of control
T/C (dose: 50.0 mg/kg/injection, schedule: Q01DX009 (ip), vehicle: saline sonified): 100 % of control

N#CC1=C(N)OC(c2ccccc2)=C(C#N)C1c1ccccc1 (stereo unspecified)
T/C [4]: 98 % of control
T/C [5]: 96 % of control
T/C [6]: 91 % of control

O=C(N=C(Oc1ccccc1)Oc1ccccc1)N=C(Oc1ccccc1)Oc1ccccc1
T/C [10]: 94 % of control
T/C [11]: 88 % of control
T/C [12]: 91 % of control

O=[N+]([O-])c1ccc2c(ccc3sc4ccccc4[n+]32)c1
T/C [13]: 95 % of control
T/C [14]: 108 % of control
T/C [15]: 111 % of control
T/C [16]: 112 % of control

CC(C)CC1N=C(NN=C(CCl)CCl)SP1(=O)NNc1ncccn1 (stereo unspecified)
T/C [17]: 100 % of control
T/C [18]: 100 % of control
T/C [19]: 113 % of control

Cc1cc(C)n(-c2ccnc(N3CCOCC3)n2)n1
T/C (dose: 100.0 mg/kg/injection, schedule: Q01DX001 (ip), vehicle: saline): 100 % of control
T/C (dose: 200.0 mg/kg/injection, schedule: Q01DX001 (ip), vehicle: saline): 96 % of control
T/C (dose: 400.0 mg/kg/injection, schedule: Q01DX001 (ip), vehicle: saline): 97 % of control

CCc1c(C(=O)OC)c(C(=O)OC)c(-c2ccccc2)n1CCn1c(CC)c(C(=O)OC)c(C(=O)OC)c1-c1ccccc1
T/C [17]: 96 % of control
T/C [18]: 91 % of control
T/C [19]: 93 % of control

CC(O)CC1C=CCC(CC(O)c2ccccc2)N1C (stereo unspecified)
T/C (dose: 12.5 mg/kg/injection, schedule: Q01DX005 (ip), vehicle: Klucel (hydroxypropylcellulose) (HPC)): 102 % of control
T/C (dose: 25.0 mg/kg/injection, schedule: Q01DX005 (ip), vehicle: Klucel (hydroxypropylcellulose) (HPC)): 100 % of control
T/C [10]: 105 % of control

CSc1nc(N)c(NS(=O)(=O)c2ccc([N+](=O)[O-])cc2)c(=O)[nH]1
T/C (dose: 15.0 mg/kg/injection, schedule: Q01DX005 (ip), vehicle: Klucel (hydroxypropylcellulose) (HPC)): 99 % of control
T/C (dose: 30.0 mg/kg/injection, schedule: Q01DX005 (ip), vehicle: Klucel (hydroxypropylcellulose) (HPC)): 87 % of control
T/C [17]: 91 % of control and 93 % of control

CCOC(=O)CCOc1ccccc1N(CCCl)CCCl
T/C (dose: 3.13 mg/kg/injection, schedule: Q04DX003 (ip), vehicle: saline with Tween-80): 150 % of control
T/C (dose: 6.25 mg/kg/injection, schedule: Q04DX003 (ip), vehicle: saline with Tween-80): 163 % of control

COc1cccc2c1S(=O)(=O)C(c1ccccc1)=CC2=O
T/C [17]: 105 % of control
T/C [18]: 105 % of control
T/C [19]: 120 % of control

CCCCOC(OCCCC)C(OCCCC)OCCCC
T/C [20]: 105 % of control
T/C (dose: 100.0 mg/kg/injection, schedule: Q04DX003 (ip), vehicle: saline sonified): 95 % of control
T/C (dose: 200.0 mg/kg/injection, schedule: Q01DX009 (ip), vehicle: saline with Tween-80): 110 % of control
T/C (dose: 200.0 mg/kg/injection, schedule: Q04DX003 (ip), vehicle: saline sonified): 100 % of control
T/C (dose: 400.0 mg/kg/injection, schedule: Q01DX009 (ip), vehicle: saline with Tween-80): 105 % of control
T/C (dose: 400.0 mg/kg/injection, schedule: Q04DX003 (ip), vehicle: saline sonified): 104 % of control

O=C1/C(=C/c2ccccc2[N+](=O)[O-])COc2ccccc21
T/C [4]: 97 % of control
T/C [5]: 103 % of control
T/C [6]: 97 % of control

CCOC(=O)CC(C(=O)OCC)C(=O)OCC
T/C (dose: 25.0 mg/kg/injection, schedule: Q01DX009 (ip), vehicle: saline): 97 % of control
T/C (dose: 50.0 mg/kg/injection, schedule: Q01DX009 (ip), vehicle: saline): 100 % of control
T/C (dose: 100.0 mg/kg/injection, schedule: Q01DX009 (ip), vehicle: saline): 103 % of control
T/C (dose: 200.0 mg/kg/injection, schedule: Q01DX009 (ip), vehicle: saline): 106 % of control

Cc1ccc(NC2=C([n+]3ccc(C)cc3)C(=O)c3ccccc3C2=O)cc1
T/C [14]: 100 % of control
T/C [15]: 109 % of control
T/C [16]: 124 % of control

O=C1c2ccccc2C(=O)N1N1CC1c1ccccc1 (stereo unspecified)
T/C [16]: 106 % of control
T/C [21]: 101 % of control
T/C (dose: 200.0 mg/kg/injection, schedule: Q01DX005 (ip), vehicle: saline with Tween-80): 97 % of control

COC(=O)c1cc(-c2ccc(OC)cc2)[nH]c(=O)c1C#N
T/C [4]: 100 % of control
T/C [5]: 91 % of control

CCCN(CCC)C(=O)Cn1cc([N+](=O)[O-])s/c1=N/C(=O)NCC
T/C (dose: 25.0 mg/kg/injection, schedule: Q01DX001 (ip), vehicle: saline with Tween-80): 97 % of control
T/C (dose: 50.0 mg/kg/injection, schedule: Q01DX001 (ip), vehicle: saline with Tween-80): 99 % of control
T/C [7]: 106 % of control

CC1CCCCN1C=C1C(=O)OC(C)(C)OC1=O (stereo unspecified)
T/C [17]: 95 % of control
T/C [18]: 96 % of control

Cc1nnc(NC(=O)CCl)s1
T/C (dose: 25.0 mg/kg/injection, schedule: Q01DX009 (ip), vehicle: saline with Tween-80): 95 % of control
T/C (dose: 50.0 mg/kg/injection, schedule: Q01DX009 (ip), vehicle: saline with Tween-80): 100 % of control
T/C [20]: 104 % of control

CC1CN(/N=C/c2ccc([N+](=O)[O-])o2)C(=O)O1 (stereo unspecified)
T/C (dose: 6.25 mg/kg/injection, schedule: Q01DX009 (ip), vehicle: Klucel (hydroxypropylcellulose) (HPC)): 108 % of control
T/C (dose: 12.5 mg/kg/injection, schedule: Q01DX009 (ip), vehicle: Klucel (hydroxypropylcellulose) (HPC)): 106 % of control
T/C (dose: 25.0 mg/kg/injection, schedule: Q01DX009 (ip), vehicle: Klucel (hydroxypropylcellulose) (HPC)): 103 % of control
T/C (dose: 50.0 mg/kg/injection, schedule: Q01DX009 (ip), vehicle: Klucel (hydroxypropylcellulose) (HPC)): 103 % of control

O=C(OCCN1CCN(CCOC(=O)C(Cl)(c2ccccc2)c2ccccc2)CC1)C(Cl)(c1ccccc1)c1ccccc1
T/C [13]: 95 % of control
T/C [14]: 93 % of control
T/C [15]: 95 % of control
T/C [21]: 90 % of control

OCCCCc1ccccc1
T/C [7]: 104 % of control
T/C [8]: 100 % of control
T/C [9]: 100 % of control
